# Experimental data published in patent US20020026052A1, “3-cyanoquinolines, 3-cyano-1,6-naphthyridines, and 3-cyano-1,7-naphthyridines as protein kinase inhibitors” (American Home Products Corporation, priority 2000, published 2002).
# Several values for one entry are separate records, joined by “and”; a condition that tells them apart may be missing. Equal values may be shown once.
# Legend:
# [1] = target: Rat2 fibroblasts stably transformed with v-Src/Hu c-Src fusion gene (Homo sapiens, UniProt P12931, cells depend on it, form not given); assay: Anchorage Independent Src-transformed Fibroblast Proliferation Assay; assay type: cell-based, Rat; details: suspension growth, MTS reagent on Day 5; read-out: anch-indep src-tx fib IC50
# Experimental: Anchorage Independent Src-transformed Fibroblast Proliferation Assay
# Rat2 fibroblasts stably transformed with a plasmid containing a CMV promotor controlled v-Src/Hu c-Src fusion gene in which the catalytic domain of human c-Src was inserted in place of the v-Src catalytic domain in the v-Src gene are used for the measurement of src dependent suspension growth. […] Multiple entries for a given compound indicate that it was tested multiple times.
# Rat2 fibroblasts stably transformed with v-Src/Hu c-Src fusion gene, sequence (P12931 whole entry, change not shown, the tested form may be a part): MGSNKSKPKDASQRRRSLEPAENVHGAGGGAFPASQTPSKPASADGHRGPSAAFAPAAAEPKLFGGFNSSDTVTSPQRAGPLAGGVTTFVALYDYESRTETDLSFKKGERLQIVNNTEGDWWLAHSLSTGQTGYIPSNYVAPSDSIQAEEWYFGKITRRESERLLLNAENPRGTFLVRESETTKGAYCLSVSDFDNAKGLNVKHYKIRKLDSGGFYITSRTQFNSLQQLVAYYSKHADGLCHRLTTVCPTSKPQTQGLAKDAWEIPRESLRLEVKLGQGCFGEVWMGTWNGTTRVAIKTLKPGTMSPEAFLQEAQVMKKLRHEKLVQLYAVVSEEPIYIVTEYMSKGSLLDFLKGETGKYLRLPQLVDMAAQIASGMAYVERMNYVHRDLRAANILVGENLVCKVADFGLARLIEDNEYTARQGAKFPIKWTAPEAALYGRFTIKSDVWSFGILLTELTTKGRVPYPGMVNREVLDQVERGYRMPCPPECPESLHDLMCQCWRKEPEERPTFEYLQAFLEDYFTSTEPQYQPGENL
SMILES,GI50 [1],melting point
"N#Cc1cnc2cc(C=CCCCN3CCOCC3)ccc2c1Nc1ccc(Cl)cc1Cl (mixture of isomers) [Example 12, 4-(2,4-Dichloroanilino)-7-[(E/Z)-5-(4-morpholinyl)-1-pentenyl]-3-quinoline-carbonitrile]",> 10000 nM,70 to 72 °C
"N#Cc1cnc2cc(C=CCCCCN3CCOCC3)ccc2c1Nc1ccc(Cl)cc1Cl (mixture of isomers) [Example 16, 4-(2,4-Dichloroanilino)-7-[(E/Z)-6-(4-morpholinyl)-1-hexenyl]-3-quinolinecarbonitrile]",> 10000 nM,128 to 130 °C
"COc1cc(Nc2c(C#N)cnc3cc(-c4ccc(C5OCCO5)o4)ccc23)c(Cl)cc1Cl [Example 5, 4-(2,4-dichloro-5-methoxyanilino)-7-[5-(1,3-dioxolan-2-yl)-2-furyl]-3-quinolinecarbonitrile]",200 nM,224 to 229 °C
"COc1cc(Nc2c(C#N)cnc3cc(-c4ccc(C=O)o4)ccc23)c(Cl)cc1Cl [Example 6, 4-(2,4-Dichloro-5-methoxyanilino)-7-(5-formyl-2-furyl)-3-quinolinecarbonitrile]",1600 nM,> 250 °C
"N#Cc1cnc2cc(-c3ccc(CCN4CCOCC4)s3)ccc2c1Nc1ccc(Cl)cc1Cl [Example 9, 4-(2,4-Dichloroanilino)-7-{5-[2-(4-morpholinyl)ethyl]-2-thienyl}-3-quinoline-carbonitrile]",2700 nM,168 to 169 °C
"CCN1CCN(Cc2cc(-c3ccc4c(Nc5ccc(Cl)cc5Cl)c(C#N)cnc4c3)cs2)CC1 [Example 10, 4-(2,4-Dichloroanilino)-7-{5-[(4-ethyl-1-piperazinyl)methyl]-3-thienyl}-3-quinolinecarbonitrile]",900 nM,182 to 184 °C
"N#Cc1cnc2cc(C#CCCCN3CCOCC3)ccc2c1Nc1ccc(Cl)cc1Cl [Example 11, 4-(2,4-Dichloroanilino)-7-[5-(4-morpholinyl)-1-pentynyl]-3-quinolinecarbonitrile]",> 10000 nM,131 to 133 °C
"N#Cc1cnc2cc(-c3ccc(CN4CCOCC4)o3)ccc2c1Nc1ccc(Cl)cc1Cl [Example 13, 4-(2,4-Dichloroanilino)-7-[5-(4-morpholinylmethyl)-2-furyl]-3-quinolinecarbonitrile]",1510 nM and 1590 nM,118 to 120 °C
"CN(C)CC#Cc1ccc2c(Nc3ccc(Cl)cc3Cl)c(C#N)cnc2c1 [Example 15, 4-(2,4-dichloroanilino)-7-[3-(dimethylamino)-1-propynyl]-3-quinolinecarbonitrile]",> 10000 nM,144 to 145 °C
N#Cc1cnc2cc(-c3cc(CN4CCOCC4)c(CN4CCOCC4)s3)ccc2c1Nc1ccc(Cl)cc1Cl [Example 17],310 nM,118 to 125 °C
"COc1cc(Nc2c(C#N)cnc3cc(-c4cc(CN5CCOCC5)c(CN5CCOCC5)s4)ccc23)c(Cl)cc1Cl [Example 20, 7-[4,5-Bis(4-morpholinylmethyl)-2-thienyl]-4-(2,4-dichloro-5-methoxyanilino)-3-quinolinecarbonitrile]",40 nM and 30 nM,118 to 125 °C
"COc1cc(Nc2c(C#N)cnc3cc(-c4ccc(CCCCN5CCOCC5)s4)ccc23)c(Cl)cc1Cl [Example 22, 4-(2,4-Dichloro-5-methoxyanilino)-7-{5-[4-(4-morpholinyl)butyl]-2-thienyl}-3-quinolinecarbonitrile]",600 nM,188 °C (dec.)
"N#Cc1cnc2cc(-c3csc(CN4CCOCC4)c3)ccc2c1Nc1ccc(Cl)cc1Cl [Example 25, 4-(2,4-Dichloroanilino)-7-[5-(4-morpholinylmethyl)-3-thienyl]-3-quinolinecarbonitrile]",1300 nM and 930 nM,203 to 205 °C
"COc1cc(Nc2c(C#N)cnc3cc(-c4csc(CN5CCOCC5)c4)c(OC)cc23)c(Cl)cc1Cl [Example 36, 4-(2,4-Dichloro-5-methoxyanilino)-6-methoxy-7-[5-(4-morpholinylmethyl)-3-thienyl]-3-quinolinecarbonitrile]",160 nM and 200 nM,148 to 150 °C
"COc1cc(Nc2c(C#N)cnc3cc(-c4ccc(CN5CCC[C@@H]5C(N)=O)o4)ccc23)c(Cl)cc1Cl [Example 47, (2 R)-1-({5-[3-cyano-4-(2,4-dichloro-5-methoxyanilino)-7-quinolinyl]-2-furyl}methyl)-2-pyrrolidinecarboxamide]",1170 nM,121 to 126 °C
"COc1cc(Nc2c(C#N)cnc3cc(-c4ccc(C5OCCO5)s4)ccc23)c(Cl)cc1Cl [Example 51, 4-(2,4-dichloro-5-methoxyanilino)-7-[5-(1,3-dioxolan-2-yl)-2-thienyl]-3-quinolinecarbonitrile]",420 nM,174 to 177 °C (dec.)
"COc1cc(Nc2c(C#N)cnc3cc(-c4ccc(CN5CCOCC5)o4)ccc23)c(Cl)cc1Cl [Example 53, 4-(2,4-Dichloro-5-methoxyanilino)-7-[5-(4-morpholinylmethyl)-2-furyl]-3-quinolinecarbonitrile]",250 nM,182 to 183 °C
"COc1ccc(/C=C/c2ccc3c(Nc4cc(OC)c(Cl)cc4Cl)c(C#N)cnc3c2)cc1 [Example 54, 4-(2,4-Dichloro-5-methoxyanilino)-7-[(E)-2-(4-methoxyphenyl)ethenyl]-3-quinolinecarbonitrile]",> 10000 nM,216 to 220 °C
"COc1cc(Nc2c(C#N)cnc3cc(-c4ccc(CNCCS(=O)(=O)c5ccccc5)o4)ccc23)c(Cl)cc1Cl [Example 58, 4-(2,4-Dichloro-5-methoxyanilino)-7-[5-({[2-(phenylsulfonyl)ethyl]amino}methyl)-2-furyl]-3-quinolinecarbonitrile]",5100 nM,123 to 128 °C
"COc1cc(Nc2c(C#N)cnc3cc(-c4cncn4CCN4CCOCC4)ccc23)c(Cl)cc1Cl [Example 64, 4-(2,4-Dichloro-5-methoxyanilino)-7-{1-[2-(4-morpholinyl)ethyl]-lH-imidazol-5-yl}-3-quinolinecarbonitrile]",> 10000 nM,150 °C (dec.)
"COc1cc(Nc2c(C#N)cnc3cc(-c4ccc(N5CCOCC5)cc4)ccc23)c(Cl)cc1Cl [Example 67, 4-(2,4-Dichloro-5-methoxyanilino)-7-[4-(4-morpholinyl)phenyl]-3-quinolinecarbonitrile]",110 nM,235 to 237 °C
"COc1cc(Nc2c(C#N)cnc3cc(-c4ccc(C=O)n4C)ccc23)c(Cl)cc1Cl [Example 69, 4-(2,4-Dichloro-5-methoxyanilino)-7-(5-formyl-1-methyl-1H-pyrrol-2-yl)-3-quinolinecarbonitrile]",> 10000 nM,200 °C (dec.)
"COc1cc(Nc2c(C#N)cnc3cc(-c4ccc(CN5CCOCC5)n4C)ccc23)c(Cl)cc1Cl [Example 70, 4-(2,4-Dichloro-5-methoxyanilino)-7-[1-methyl-5-(4-morpholinylmethyl)-1H-pyrrol-2-yl]-3-quinolinecarbonitrile]",6000 nM,208 to 210 °C
"COc1cc(Nc2c(C#N)cnc3cc(-c4ccc(CN5CCN(C)CC5)n4C)ccc23)c(Cl)cc1Cl [Example 71, 4-(2,4-Dichloro-5-methoxyanilino)-7-{1-methyl-5-[(4-methyl-1-piperazinyl)methyl]-1H-pyrrol-2-yl}-3-quinolinecarbonitrile]",6800 nM,200 °C (dec.)
"COc1cc(Nc2c(C#N)cnc3cc(-c4ccc(CNCCS(C)(=O)=O)n4C)ccc23)c(Cl)cc1Cl [Example 73, 4-(2,4-dichloro-5-methoxyanilino)-7-[1-methyl-5-({[2-(methylsulfonyl)ethyl]amino}-methyl)-1H-pyrrol-2-yl]-3-quinolinecarbonitrile]",> 10000 nM,160 to 164 °C
"COc1cc(Nc2c(C#N)cnc3cc(-c4ccc(CN5CCN(CCO)CC5)o4)ccc23)c(Cl)cc1Cl [Example 75, 4-(2,4-Dichloro-5-methoxyanilino)-7-(5-{[4-(2-hydroxyethyl)-1-piperazinyl]methyl}-2-furyl)-3-quinolinecarbonitrile]",290 nM,176 to 181 °C
"COc1cc(Nc2c(C#N)cnc3cc(-c4ccc(CN(CCO)CCO)o4)ccc23)c(Cl)cc1Cl [Example 76, 7-(5-{[Bis(2-hydroxyethyl)amino]methyl}-2-furyl)-4-(2,4-dichloro-5-methoxyanilino)-3-quinolinecarbonitrile]",1100 nM,155 to 160 °C
"COc1cc(Nc2c(C#N)cnc3cc(-c4ccc(CNCCS(C)(=O)=O)o4)ccc23)c(Cl)cc1Cl [Example 77, 4-(2,4-Dichloro-5-methoxyanilino)-7-[5-({[2-(methylsulfonyl)ethyl]amino}methyl)-2-furyl]-3-quinolinecarbonitrile]",420 nM,171 to 174 °C
"COc1cc(Nc2c(C#N)cnc3cc(-c4csc(CN5CCOCC5)c4)ccc23)c(Cl)cc1F [Example 79, 4-{2-Chloro-4-fluoro-5-methoxyanilino)-7-[5-(4-morpholinylmethyl)-3-thienyl]-3-quinolinecarbonitrile]",130 nM,185 to 187 °C
"COc1cc(Nc2c(C#N)cnc3cc(-c4csc(CN5CCOCC5)c4)ccc23)c(Cl)cc1C [Example 80, 4-(2-chloro-5-methoxy-4-methylanilino)-7-[5-(4-morpholinylmethyl)-3-thienyl]-3-quinolinecarbonitrile]",80 nM,168 to 170 °C
